Reference: US20090074815A1, “Immunomodulator Compounds as Vaccine Enhancers” (SCICLONE PHARMACEUTICALS, INC., priority 2005, published 2009)
Like-named read-outs stand apart in the source and are kept apart here.

How the values were obtained:
bone marrow cells = assay: Expression of Thy1 marker by bone marrow cells (flow cytometry) after SCV-07 treatment; type: in vivo, mice
Excerpt: Materials and Methods: Eighteen (18) to twenty (20) gram (g) male mice, purchased from the Rappolovo Animal Facility, Russia, were used in the studies described below. C57BL/6 (B6) mice were used to evaluate the effect of SCV-07 in non-immunized mice. CBAxC57BL/6 (F1) mice were used for studies of the effects of SCV-07 on the antigen-specific immune response. Mice were kept under the standard animal facility conditions and were provided with a standard diet and water ad libitum. Each treatment group included 4-5 mice. […] A suspension containing filling agents alone, which corresponded to the maximum amount of filling agents in the doses of SCV-07 administered to experimental animals, was used a control. Thigh bones were removed from treated mice under aseptic conditions, and the medullary cavities were […] washed with PBS. Fragments of the bone marrow were minced by passing the tissue through a syringe needle. The resulting cell suspension was filtered through a double gauze layer and washed in PBS. After erythrocytes were lysed, the cells were counted and transferred to flat bottom culture plates. Due to an almost complete lack of spontaneous proliferation, the absolute values of proliferation, which were expressed as counts per minute (CPM), were determined and the Con A-induced proliferation of thymic cells from animals of different groups were compared. Analysis by Flow Cytometry: […] Immunomodulatory Activity of SCV-07 After Oral Administration: Thy1-positive lymphocytes, the precursors of T-cells in the bone marrow, increased in a dose-dependent manner in mice after treatment with SCV-07 per os. These increases were analogous to those observed in mice which received SCV-07 i.p (Table 2).

[1] = test system: IFN-γ production by ConA-stimulated splenocytes; assay: IFN-γ production by ConA-stimulated splenocytes (EIA); type: in vivo, mice
[2] = test system: IL-2 production by OvA-stimulated splenocytes; assay: OvA-stimulated production of IL-2 by splenocytes of OvA-immunized mice; conditions: for activity at 0.0001 mg/kg / activity at 0.001 mg/kg / activity at 0.01 mg/kg: Mus musculus, Splenocyte, po; for activity at 0.0001 mg/kg: 0.1 μg/kg per os; for activity at 0.001 mg/kg: 1.0 μg/kg per os; for activity at 0.01 mg/kg: 10.0 μg/kg per os; for Production of IL-2 by splenocytes / Production of IL-2 by splenocytes, % (% of control): OvA/Alum, 0.1 μg/kg i/p
Procedure: The OvA was administered subcutaneously to the crest in a volume of 200 μl. Mice were immunized on day 1 with OvA in complete Freund's adjuvant (CFA; Sigma) and on day 15 with the antigen in incomplete Freund's adjuvant (IFA; Sigma). The immune response was analyzed on day 29. Mice were also immunized with 10 μg/mouse of OvA using Alum as an adjuvant.
Thymuses and spleens from mice of each treatment group were pooled, and then minced with scissors. The minced tissues were suspended in sterile PBS to form cell suspensions, filtered through a double gauze layer and centrifuged. Cells were washed twice with PBS, re-suspended in RPMI-1640 (Sigma) with 2.0 mM of L-glutamine, 50 μM of mercaptoethanol, and 10 μg/ml of gentamycin (complete medium); and cell counts were made. (The splenocyte suspension was washed with a 0.86% solution of NH4Cl to pre-lyse erthrocytes.)
Assessment of Mitogen- and Antigen-Induced Production of Cytokines: Thymic cells (1×10^6/well) in complete medium with 2% FCS were stimulated with ConA (0, 1, and 2 μg/ml). Splenocytes (1×10^6/well) in complete medium with 5% FCS were stimulated with ConA (0, 1, and 5 μg/ml) and with OvA (0-100 μg/ml). […] Supernatants from OvA-stimulated cultures were collected after 72 hours. Supernatants from both cultures were frozen, and kept at 20° C. Concentrations of IL-2, IL-4, IL-10, IL-12R40 and IFNγ in the supernatants were determined by solid-phase EIA with EIA Expansion Kits, available from BD Biosciences (formerly Pharmingen), in accordance with the manufacturer's instructions.

[3] = read-out: Production of IL-2 by splenocytes, % (% of control), OvA/Alum, OvA 0 μg/ml
[4] = read-out: Production of IL-2 by splenocytes, % (% of control), OvA/Alum, OvA 1 μg/ml
[5] = read-out: Production of IL-2 by splenocytes, % (% of control), OvA/Alum, OvA 10 μg/ml
[6] = read-out: Production of IL-2 by splenocytes, % (% of control), OvA/Alum, OvA 25 μg/ml
[7] = read-out: Production of IL-2 by splenocytes, % (% of control), OvA/Alum, OvA 100 μg/ml
[8] = read-out: Production of IL-2 by splenocytes, % (% of control), OvA/FA, OvA 0 μg/ml
[9] = read-out: Production of IL-2 by splenocytes, % (% of control), OvA/FA, OvA 1 μg/ml
[10] = read-out: Production of IL-2 by splenocytes, % (% of control), OvA/FA, OvA 10 μg/ml
[11] = read-out: Production of IL-2 by splenocytes, % (% of control), OvA/FA, OvA 25 μg/ml
[12] = read-out: Production of IL-2 by splenocytes, % (% of control), OvA/FA, OvA 100 μg/ml

N[C@H](CCC(=O)N[C@@H](Cc1c[nH]c2ccccc12)C(=O)O)C(=O)O [SCV-07, γ-D-glutamyl-L-tryptophan]
Thy-1 positive cells, % (bone marrow cells; 0.1 μg/kg per os): 12.9 ± 1.2% | Thy-1 positive cells, % (bone marrow cells; 1.0 μg/kg i/p): 15.4 ± 0.1% | Thy-1 positive cells, % (bone marrow cells; 1.0 μg/kg per os): 14.9 ± 1.3% | Thy-1 positive cells, % (bone marrow cells; 10.0 μg/kg per os): 16.0 ± 0.7% | Thy-1 positive cells, % (bone marrow cells; 100.0 μg/kg per os): 16.0 ± 1.2% | IFN-γ ([1]; ConA 1 μg/ml, 0.01 μg/kg per os): 15499 pg/mL | IFN-γ ([1]; ConA 1 μg/ml, 0.1 μg/kg i/p): 13089 pg/mL | IFN-γ ([1]; ConA 1 μg/ml, 0.1 μg/kg per os): 15695 pg/mL | IFN-γ ([1]; ConA 1 μg/ml, 1.0 μg/kg i/p): 30951 pg/mL | IFN-γ ([1]; ConA 1 μg/ml, 1.0 μg/kg per os): 11411 pg/mL | IFN-γ ([1]; ConA 1 μg/ml, 10.0 μg/kg per os): 8238 pg/mL | IFN-γ ([1]; ConA 1 μg/ml, 100.0 μg/kg per os): 12990 pg/mL | IFN-γ ([1]; ConA 5 μg/ml, 0.01 μg/kg per os): 63227 pg/mL | IFN-γ ([1]; ConA 5 μg/ml, 0.1 μg/kg i/p): 87051 pg/mL | IFN-γ ([1]; ConA 5 μg/ml, 0.1 μg/kg per os): 65692 pg/mL | IFN-γ ([1]; ConA 5 μg/ml, 1.0 μg/kg i/p): 142155 pg/mL | IFN-γ ([1]; ConA 5 μg/ml, 1.0 μg/kg per os): 47683 pg/mL | IFN-γ ([1]; ConA 5 μg/ml, 10.0 μg/kg per os): 66185 pg/mL | IFN-γ ([1]; ConA 5 μg/ml, 100.0 μg/kg per os): 43670 pg/mL | IFN-γ ([1]; Spontaneous, 0.01 μg/kg per os): 0 pg/mL | IFN-γ ([1]; Spontaneous, 0.1 μg/kg i/p): 1393 pg/mL | IFN-γ ([1]; Spontaneous, 0.1 μg/kg per os): 0 pg/mL | IFN-γ ([1]; Spontaneous, 1.0 μg/kg i/p): 1738 pg/mL | IFN-γ ([1]; Spontaneous, 1.0 μg/kg per os): 1629 pg/mL | IFN-γ ([1]; Spontaneous, 10.0 μg/kg per os): 0 pg/mL | IFN-γ ([1]; Spontaneous, 100.0 μg/kg per os): 0 pg/mL | activity at 0.0001 mg/kg [2, 3]: 100% | activity at 0.0001 mg/kg [2, 4]: 94.3% | activity at 0.0001 mg/kg [2, 5]: 72% | activity at 0.0001 mg/kg [2, 6]: 148% | activity at 0.0001 mg/kg [2, 7]: 52.5% | activity at 0.001 mg/kg [2, 3]: 100% | activity at 0.001 mg/kg [2, 4]: 57.7% | activity at 0.001 mg/kg [2, 5]: 113% | activity at 0.001 mg/kg [2, 6]: 75.4% | activity at 0.001 mg/kg [2, 7]: 74.7% | activity at 0.01 mg/kg [2, 3]: 100% | activity at 0.01 mg/kg [2, 4]: 191% | activity at 0.01 mg/kg [2, 5]: 87.2% | activity at 0.01 mg/kg [2, 6]: 75.6% | activity at 0.01 mg/kg [2, 7]: 104% | activity at 0.0001 mg/kg [2, 8]: 100% | activity at 0.0001 mg/kg [2, 9]: 32.4% | activity at 0.0001 mg/kg [2, 10]: 43.9% | activity at 0.0001 mg/kg [2, 11]: 119% | activity at 0.0001 mg/kg [2, 12]: 44.8% | activity at 0.001 mg/kg [2, 8]: 100% | activity at 0.001 mg/kg [2, 9]: 67.6% | activity at 0.001 mg/kg [2, 10]: 248% | activity at 0.001 mg/kg [2, 11]: 125% | activity at 0.001 mg/kg [2, 12]: 231% | activity at 0.01 mg/kg [2, 8]: 100% | activity at 0.01 mg/kg [2, 9]: 49.2% | activity at 0.01 mg/kg [2, 10]: 187% | activity at 0.01 mg/kg [2, 11]: 176% | activity at 0.01 mg/kg [2, 12]: 293% | Production of IL-2 by splenocytes ([2]; OvA 0 μg/ml): 163.0 pg/mL | Production of IL-2 by splenocytes ([2]; OvA 1 μg/ml): 190.3 pg/mL | Production of IL-2 by splenocytes, % (% of control) ([2]; OvA 1 μg/ml): 116.7% | Production of IL-2 by splenocytes ([2]; OvA 10 μg/ml): 87.5 pg/mL | Production of IL-2 by splenocytes, % (% of control) ([2]; OvA 10 μg/ml): 53.7% | Production of IL-2 by splenocytes ([2]; OvA 25 μg/ml): 83.5 pg/mL | Production of IL-2 by splenocytes, % (% of control) ([2]; OvA 25 μg/ml): 51.2% | Production of IL-2 by splenocytes ([2]; OvA 100 μg/ml): 84.8 pg/mL
